Columns and labels:
[1] = Absorption spectra (Cary 5000 UV-Vis-NIR spectrophotometer, 1 cm quartz cell); type: physicochemical; details: ring closed lactone form, FIG. 2
Protocol: (§1) All chemicals and solvents were purchased from commercial suppliers and used without further purification unless other-wise specified. ^1H NMR (500 MHz) and ^13C NMR ([…]) spectra were recorded in deuterated solvents on a Bruker ADVANCE 500 NMR Spectrometer. J values are expressed in Hz and quoted chemical shifts are in ppm downfield from tetramethylsilane (TMS) reference using the residual protonated solvents as an internal standard. The signals have been designated as follows: s (singlet), d (doublet), t (triplet), m (multiplets). High resolution mass spectra (HRMS) were deter-mined on Bruker-micrOTOF-Q II Mass Spectrometer. Absorption spectra were acquired using a Cary 5000 UV-Vis-NIR spectrophotometer in a 1 cm quartz cell. Fluorescence spectra were acquired using a Horiba QuantaMaster 8075-21 spectrofluorometer with xenon lamp excitation and liquid nitrogen cooled indium gallium arsenide solid state detector. […] The relative quantum yield of the rhodindolizine dye was calculated using a known technique. […] The absorbance point for the quantum yield was chosen because of similar overlap in the absorption spectra between the standard and the rhodindolizine dye. […]
(§2) Additionally, a range of solvent polarities were evaluated to access the polarity of RhIndz in the ground-state via absorption spectroscopy and in the excited-state via fluorescence spectroscopy (Table 6).

[2] = Fluorescence spectra (Horiba QuantaMaster 8075-21 spectrofluorometer, InGaAs detector); type: physicochemical; details: closed spirolactone structure
Protocol: as §1, §2

absorption maximum [1]: 375 nm | fluorescence of closed spirocyclic form [2]: non-fluorescent
Compound: Cc1c(-c2ccccc2)c(-c2ccc3c(c2)Oc2cc(-c4c(-c5ccccc5)c(C)c5ccccn45)ccc2C32OC(=O)c3ccccc32)n2ccccc12 [RhIndz, 3′,6′-bis(1-methyl-2-phenylindolizin-3-yl)-3H-spiro[2-benzofuran-1,9′-xanthen]-3-one]
